Measured values taken from US12344610B2, “APOL1 inhibitors and methods of use” (Maze Therapeutics, Inc., priority 2022, dated 2025).

What follows are compounds tested on human immortalized podocytes inducibly expressing APOL1 G2 (assay: APOL1 G2 podocyte cell rescue assay (Example B4)). Conditions: Homo sapiens, differentiated human podocytes, doxycycline-induced APOL1 G2, CellTiter-Glo; geometric mean of at least 2 runs; † = single run.
Assay type: cell-based
Procedure, shortened: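 Differentiated hTERT-immortalized podocytes (clone D10) with doxycycline-inducible C-terminally HiBiT-tagged APOL1 G2, 6,000 cells/well, treated with doxycycline plus 8-point 3-fold compound series (0.4% DMSO) for 95 h at 37 °C. Viability by CellTiter-Glo luminescence; EC50 as geometric mean of ≥2 runs, each in duplicate.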
With `C[C@]1(O)C[C@@H](n2c(=O)cnc3cc(OCCN4CCC5(CC4)C(=O)Nc4ccc(Cl)cc45)cnc32)C1` [Compound 358, 5-chloro-1′-[2-({3-oxo-4-[(cis)-3-hydroxy-3-methylcyclobutyl]-3H,4H-pyrido[2,3-b]pyrazin-7-yl}oxy)ethyl]-1,2-dihydrospiro[indole-3,4′-piperidin]-2-one] the EC50 was 24 nM. With `CS(=O)(=O)C1(c2ncc(OCCN3CCC4(CC3)C(=O)Nc3ccc(OC(F)F)cc34)cn2)CC1` [Compound 6, 5-(difluoromethoxy)-1′-(2-{[2-(1-methanesulfonylcyclopropyl)pyrimidin-5-yl]oxy}ethyl)-1,2-dihydrospiro[indole-3,4′-piperidin]-2-one] the EC50 was 47.7 nM. Work on `CS(=O)(=O)C1(c2ncc(OCCN3CCC4(CC3)C(=O)Nc3ccc(C(F)F)cc34)cn2)CC1` [Compound 5, 5-(difluoromethyl)-1′-(2-{[2-(1-methanesulfonylcyclopropyl)pyrimidin-5-yl]oxy}ethyl)-1,2-dihydrospiro[indole-3,4′-piperidin]-2-one] yielded an EC50 of over 330 nM. `O=C1CCc2cc(OCCN3CCC4(CC3)C(=O)Nc3ccc(Cl)cc34)cnc2N1[C@H]1C[C@H](O)C1` [Compound 267, 5-chloro-1′-[2-({7-oxo-8-[(trans)-3-hydroxycyclobutyl]-5,6,7,8-tetrahydro-1,8-naphthyridin-3-yl}oxy)ethyl]-1,2-dihydrospiro[indole-3,4′-piperidin]-2-one] showed an EC50 of 6.63 nM. For `CC1(O)CN(c2ncc(OCCN3CCC4(CC3)C(=O)Nc3ccc(C(F)F)cc34)cn2)C1` [Compound 395, 5-(difluoromethyl)-1′-(2-{[2-(3-hydroxy-3-methylazetidin-1-yl)pyrimidin-5-yl]oxy}ethyl)-1,2-dihydrospiro[indole-3,4′-piperidin]-2-one], the EC50 was 137 nM.

Same assay, conditions: differentiated human podocytes, doxycycline-induced APOL1 G2, CellTiter-Glo; geometric mean of at least 2 runs; † = single run
With `CS(=O)(=O)C1(c2ccc(OCCN3CCC4(CC3)C(=O)Nc3ccc(Cl)cc34)cc2)CC(O)C1` (stereo not drawn) [Compound 269, 5-chloro-1′-(2-{4-[(cis) or (trans)-3-hydroxy-1-methanesulfonylcyclobutyl]phenoxy}ethyl)-1,2-dihydrospiro[indole-3,4′-piperidin]-2-one] the EC50 was 30.4 nM. Compound `CC(c1ncc(OCCN2CCC3(CC2)C(=O)Nc2ccc(Cl)cc23)cn1)S(C)(=O)=O` (single isomer, unassigned) [Compound 3, 5-chloro-1′-[2-({2-[(1R) or (1S)-1-methanesulfonylethyl]pyrimidin-5-yl}oxy)ethyl]-1,2-dihydrospiro[indole-3,4′-piperidin]-2-one] has an EC50 of 23.5 nM. Work on `CC(O)c1ncc(OCCN2CCC3(CC2)C(=O)Nc2ccc(C#N)cc23)cc1C(F)(F)F` (single isomer, unassigned) [Compound 377, 1′-[2-({6-(1S) or (1R)-1-hydroxyethyl]-5-(trifluoromethyl)pyridin-3-yl}oxy)ethyl]-2-oxo-1,2-dihydrospiro[indole-3,4′-piperidine]-5-carbonitrile] yielded an EC50 of 24.4 nM. In the case of `CC(c1ncc(OCCN2CCC3(CC2)C(=O)Nc2ccc(Cl)cc23)cn1)S(C)(=O)=O` (single isomer, unassigned) [Compound 2, 5-chloro-1′-[2-({2-[(1S) or (1R)-1-methanesulfonylethyl]pyrimidin-5-yl}oxy)ethyl]-1,2-dihydrospiro[indole-3,4′-piperidin]-2-one], the EC50 is reported as 10.7 nM. `CC(O)c1ncc(OCCN2CCC3(CC2)C(=O)Nc2ccc(C#N)cc23)cc1C(F)(F)F` (single isomer, unassigned) [Compound 376, 1′-[2-({6-[(1S) or (1R)-1-hydroxyethyl]-5-(trifluoromethyl)pyridin-3-yl}oxy)ethyl]-2-oxo-1,2-dihydrospiro[indole-3,4′-piperidine]-5-carbonitrile] showed an EC50 of 6.21 nM. For `CS(=O)(=O)C1(c2ccc(OCCN3CCC4(CC3)C(=O)Nc3ccc(Cl)cc34)cc2)CC(O)C1` (stereo not drawn) [Compound 270, 5-chloro-1′-(2-{4-[(trans) or (cis)-3-hydroxy-1-methanesulfonylcyclobutyl]phenoxy}ethyl)-1,2-dihydrospiro[indole-3,4′-piperidin]-2-one], the EC50 was 2.92 nM.
